Laboratory results: patent US9492471B2, “Methods of treating a disease or disorder associated with Bruton'S Tyrosine Kinase” (Celgene Avilomics Research, Inc., priority 2013, dated 2016)
Like-named read-outs stand apart in the source and are kept apart here.

Assays:
Test in all cases: HotSpot kinase profiling
Assay type in all cases: biochemical
MYLK3 = target: T1, MYLK3 (Homo sapiens, UniProt Q32MK0)
T1 construct: purchased Reaction Biology Corp
T1 sequence (Q32MK0 1-819): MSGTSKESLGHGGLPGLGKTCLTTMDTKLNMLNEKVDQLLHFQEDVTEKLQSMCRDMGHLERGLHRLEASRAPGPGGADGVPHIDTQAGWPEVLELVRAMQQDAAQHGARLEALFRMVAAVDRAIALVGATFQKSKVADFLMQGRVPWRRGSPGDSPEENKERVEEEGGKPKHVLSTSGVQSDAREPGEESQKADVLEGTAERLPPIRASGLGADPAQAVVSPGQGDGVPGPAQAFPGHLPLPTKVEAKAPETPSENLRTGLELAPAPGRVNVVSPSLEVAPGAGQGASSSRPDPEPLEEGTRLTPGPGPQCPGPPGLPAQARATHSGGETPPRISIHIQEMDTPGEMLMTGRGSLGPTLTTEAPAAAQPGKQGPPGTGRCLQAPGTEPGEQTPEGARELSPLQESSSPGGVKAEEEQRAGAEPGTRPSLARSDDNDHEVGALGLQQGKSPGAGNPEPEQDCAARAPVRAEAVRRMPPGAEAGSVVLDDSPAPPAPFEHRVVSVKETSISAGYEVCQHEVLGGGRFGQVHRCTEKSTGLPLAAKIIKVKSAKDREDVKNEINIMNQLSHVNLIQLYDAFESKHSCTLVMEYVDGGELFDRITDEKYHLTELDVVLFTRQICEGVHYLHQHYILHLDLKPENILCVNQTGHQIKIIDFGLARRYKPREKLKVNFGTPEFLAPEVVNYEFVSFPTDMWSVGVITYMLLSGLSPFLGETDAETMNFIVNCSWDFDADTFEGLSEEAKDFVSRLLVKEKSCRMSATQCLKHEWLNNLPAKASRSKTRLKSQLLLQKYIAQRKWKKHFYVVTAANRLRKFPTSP
Outline: (§1)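 Radio-isotope P81 filtration format. Substrate + required cofactors in reaction buffer, kinase added, 2 h RT. Stop, wash with 0.1% phosphoric acid, detect. % inhibition vs DMSO; mean of duplicates where repeated.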

PKCzeta = target: T2, PKCzeta (Homo sapiens, UniProt Q05513)
T2 construct: purchased Reaction Biology Corp
T2 sequence (Q05513 1-592): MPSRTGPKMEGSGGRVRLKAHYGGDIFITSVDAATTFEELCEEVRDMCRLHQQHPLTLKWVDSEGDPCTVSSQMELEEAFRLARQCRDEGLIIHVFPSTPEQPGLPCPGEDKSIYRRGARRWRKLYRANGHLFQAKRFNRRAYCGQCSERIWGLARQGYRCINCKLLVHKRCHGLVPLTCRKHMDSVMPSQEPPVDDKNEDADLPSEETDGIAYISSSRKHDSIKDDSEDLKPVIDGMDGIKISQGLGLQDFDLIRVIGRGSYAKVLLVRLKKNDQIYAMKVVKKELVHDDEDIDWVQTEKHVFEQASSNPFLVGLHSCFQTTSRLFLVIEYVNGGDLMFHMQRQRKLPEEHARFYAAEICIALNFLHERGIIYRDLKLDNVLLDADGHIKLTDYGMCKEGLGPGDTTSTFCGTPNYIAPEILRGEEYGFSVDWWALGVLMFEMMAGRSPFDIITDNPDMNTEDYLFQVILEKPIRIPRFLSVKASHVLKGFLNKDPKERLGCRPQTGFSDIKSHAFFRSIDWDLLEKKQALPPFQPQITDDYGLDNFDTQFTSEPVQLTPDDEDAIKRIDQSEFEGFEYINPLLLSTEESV
Outline: as §1

SLK/STK2 = target: T3, SLK/STK2 (Homo sapiens, UniProt Q9H2G2)
T3 construct: purchased Reaction Biology Corp
Outline: as §1

TNIK = target: T4, TNIK (Homo sapiens, UniProt Q9UKE5)
T4 construct: purchased Reaction Biology Corp
Outline: as §1

TRKB = target: T5, TRKB (Homo sapiens, UniProt Q16620)
T5 construct: purchased Reaction Biology Corp
Outline: as §1

TTBK2 = target: T6, TTBK2 (Homo sapiens, UniProt Q6IQ55)
T6 construct: purchased Reaction Biology Corp
Outline: as §1

[1] = read-out: % Enzyme Activity (relative to DMSO controls) Run 1
[2] = read-out: % Enzyme Activity (relative to DMSO controls) Run 2

T4 sequence (Q9UKE5 whole entry): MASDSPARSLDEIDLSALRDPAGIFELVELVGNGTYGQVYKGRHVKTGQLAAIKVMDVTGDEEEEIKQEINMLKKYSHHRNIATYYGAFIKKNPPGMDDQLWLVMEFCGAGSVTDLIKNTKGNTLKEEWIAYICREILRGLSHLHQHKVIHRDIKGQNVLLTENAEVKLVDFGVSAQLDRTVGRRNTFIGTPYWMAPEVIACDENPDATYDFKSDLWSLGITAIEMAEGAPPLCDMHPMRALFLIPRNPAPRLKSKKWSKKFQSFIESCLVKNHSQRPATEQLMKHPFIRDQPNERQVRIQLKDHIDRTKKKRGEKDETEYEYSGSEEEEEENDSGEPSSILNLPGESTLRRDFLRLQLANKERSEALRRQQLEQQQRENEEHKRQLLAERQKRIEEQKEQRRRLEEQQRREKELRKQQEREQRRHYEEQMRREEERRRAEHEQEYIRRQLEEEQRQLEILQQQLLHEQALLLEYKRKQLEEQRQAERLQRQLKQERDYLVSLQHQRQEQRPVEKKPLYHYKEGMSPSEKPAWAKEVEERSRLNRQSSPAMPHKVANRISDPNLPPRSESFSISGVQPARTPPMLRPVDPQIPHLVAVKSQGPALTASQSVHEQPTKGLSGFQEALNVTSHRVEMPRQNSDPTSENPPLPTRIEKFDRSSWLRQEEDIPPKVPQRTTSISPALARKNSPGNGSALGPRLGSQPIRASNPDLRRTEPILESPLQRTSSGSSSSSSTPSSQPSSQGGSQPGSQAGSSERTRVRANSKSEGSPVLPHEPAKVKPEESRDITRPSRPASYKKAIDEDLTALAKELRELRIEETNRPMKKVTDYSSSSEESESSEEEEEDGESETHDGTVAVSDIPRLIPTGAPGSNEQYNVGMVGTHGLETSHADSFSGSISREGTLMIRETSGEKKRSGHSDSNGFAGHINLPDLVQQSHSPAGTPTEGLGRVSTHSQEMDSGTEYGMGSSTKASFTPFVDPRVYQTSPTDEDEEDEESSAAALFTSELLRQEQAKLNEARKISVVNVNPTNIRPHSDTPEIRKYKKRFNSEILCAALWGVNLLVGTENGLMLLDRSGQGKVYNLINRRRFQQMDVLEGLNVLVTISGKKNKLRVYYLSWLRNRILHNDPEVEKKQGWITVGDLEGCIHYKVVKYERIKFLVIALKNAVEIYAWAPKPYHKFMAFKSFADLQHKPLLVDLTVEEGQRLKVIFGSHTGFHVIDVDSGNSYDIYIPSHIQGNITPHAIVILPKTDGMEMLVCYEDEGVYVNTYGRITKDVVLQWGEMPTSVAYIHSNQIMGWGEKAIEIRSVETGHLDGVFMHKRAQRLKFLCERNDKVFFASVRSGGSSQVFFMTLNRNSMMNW
T3 sequence (Q9H2G2 whole entry): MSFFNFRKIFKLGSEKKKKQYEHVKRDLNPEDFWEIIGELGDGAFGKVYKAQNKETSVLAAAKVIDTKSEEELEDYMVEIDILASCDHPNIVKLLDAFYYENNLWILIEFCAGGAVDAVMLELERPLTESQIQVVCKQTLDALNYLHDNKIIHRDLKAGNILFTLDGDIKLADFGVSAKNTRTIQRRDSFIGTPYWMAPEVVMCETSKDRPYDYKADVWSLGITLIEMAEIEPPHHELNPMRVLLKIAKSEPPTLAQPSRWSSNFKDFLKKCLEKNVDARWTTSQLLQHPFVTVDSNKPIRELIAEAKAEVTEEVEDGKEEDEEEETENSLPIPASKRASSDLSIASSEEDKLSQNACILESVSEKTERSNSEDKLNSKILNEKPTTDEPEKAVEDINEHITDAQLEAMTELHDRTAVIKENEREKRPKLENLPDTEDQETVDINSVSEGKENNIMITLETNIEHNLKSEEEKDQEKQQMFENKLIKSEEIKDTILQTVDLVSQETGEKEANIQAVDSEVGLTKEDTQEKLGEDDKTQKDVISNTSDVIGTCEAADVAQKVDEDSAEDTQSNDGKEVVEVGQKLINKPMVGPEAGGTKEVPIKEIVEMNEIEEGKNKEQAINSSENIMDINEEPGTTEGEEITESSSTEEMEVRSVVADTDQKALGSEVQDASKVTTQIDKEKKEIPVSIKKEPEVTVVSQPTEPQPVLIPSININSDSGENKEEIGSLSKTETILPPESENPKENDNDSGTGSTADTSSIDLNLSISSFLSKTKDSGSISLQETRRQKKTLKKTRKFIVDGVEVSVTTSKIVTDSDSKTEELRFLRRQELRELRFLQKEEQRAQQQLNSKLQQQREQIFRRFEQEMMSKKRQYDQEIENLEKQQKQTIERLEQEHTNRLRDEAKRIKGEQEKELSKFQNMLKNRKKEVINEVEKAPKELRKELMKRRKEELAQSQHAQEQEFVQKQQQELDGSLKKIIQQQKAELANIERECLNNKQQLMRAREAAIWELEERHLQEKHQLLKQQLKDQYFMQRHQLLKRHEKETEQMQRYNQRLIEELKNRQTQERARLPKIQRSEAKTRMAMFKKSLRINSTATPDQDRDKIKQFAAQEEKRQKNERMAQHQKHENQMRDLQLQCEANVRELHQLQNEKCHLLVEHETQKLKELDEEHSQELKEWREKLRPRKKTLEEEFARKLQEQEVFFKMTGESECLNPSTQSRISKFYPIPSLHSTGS
T6 sequence (Q6IQ55 whole entry): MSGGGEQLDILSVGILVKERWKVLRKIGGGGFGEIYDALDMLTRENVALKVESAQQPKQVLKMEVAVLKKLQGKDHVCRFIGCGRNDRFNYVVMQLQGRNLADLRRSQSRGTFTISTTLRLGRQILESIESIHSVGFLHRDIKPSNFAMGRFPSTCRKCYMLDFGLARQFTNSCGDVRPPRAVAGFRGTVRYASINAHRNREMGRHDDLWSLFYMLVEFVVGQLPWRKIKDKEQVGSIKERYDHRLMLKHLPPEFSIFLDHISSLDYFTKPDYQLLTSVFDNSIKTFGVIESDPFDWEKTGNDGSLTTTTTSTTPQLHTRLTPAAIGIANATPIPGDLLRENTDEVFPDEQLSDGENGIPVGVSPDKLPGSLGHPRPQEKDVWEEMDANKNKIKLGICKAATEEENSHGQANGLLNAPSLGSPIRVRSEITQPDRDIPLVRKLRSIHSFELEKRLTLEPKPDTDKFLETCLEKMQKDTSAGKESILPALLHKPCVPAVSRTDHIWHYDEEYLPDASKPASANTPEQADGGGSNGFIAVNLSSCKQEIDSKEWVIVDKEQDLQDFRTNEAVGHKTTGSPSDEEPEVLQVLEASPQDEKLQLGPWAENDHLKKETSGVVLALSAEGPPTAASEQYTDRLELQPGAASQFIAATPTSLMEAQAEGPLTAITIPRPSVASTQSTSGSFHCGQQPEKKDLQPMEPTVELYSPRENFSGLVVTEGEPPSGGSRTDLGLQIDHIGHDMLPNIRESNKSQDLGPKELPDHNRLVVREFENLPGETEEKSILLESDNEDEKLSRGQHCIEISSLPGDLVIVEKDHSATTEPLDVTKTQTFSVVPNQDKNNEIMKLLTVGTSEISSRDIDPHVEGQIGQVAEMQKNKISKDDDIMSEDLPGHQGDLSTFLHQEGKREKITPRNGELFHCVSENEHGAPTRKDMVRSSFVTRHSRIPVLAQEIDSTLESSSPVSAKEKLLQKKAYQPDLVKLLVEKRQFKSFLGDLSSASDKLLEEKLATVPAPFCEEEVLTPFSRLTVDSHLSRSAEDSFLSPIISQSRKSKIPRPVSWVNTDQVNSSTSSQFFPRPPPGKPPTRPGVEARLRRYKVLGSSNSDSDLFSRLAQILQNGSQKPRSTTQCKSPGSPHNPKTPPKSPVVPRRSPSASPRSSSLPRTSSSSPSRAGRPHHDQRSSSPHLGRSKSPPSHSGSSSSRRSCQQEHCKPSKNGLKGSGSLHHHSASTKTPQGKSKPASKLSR
T5 sequence (Q16620 32-822): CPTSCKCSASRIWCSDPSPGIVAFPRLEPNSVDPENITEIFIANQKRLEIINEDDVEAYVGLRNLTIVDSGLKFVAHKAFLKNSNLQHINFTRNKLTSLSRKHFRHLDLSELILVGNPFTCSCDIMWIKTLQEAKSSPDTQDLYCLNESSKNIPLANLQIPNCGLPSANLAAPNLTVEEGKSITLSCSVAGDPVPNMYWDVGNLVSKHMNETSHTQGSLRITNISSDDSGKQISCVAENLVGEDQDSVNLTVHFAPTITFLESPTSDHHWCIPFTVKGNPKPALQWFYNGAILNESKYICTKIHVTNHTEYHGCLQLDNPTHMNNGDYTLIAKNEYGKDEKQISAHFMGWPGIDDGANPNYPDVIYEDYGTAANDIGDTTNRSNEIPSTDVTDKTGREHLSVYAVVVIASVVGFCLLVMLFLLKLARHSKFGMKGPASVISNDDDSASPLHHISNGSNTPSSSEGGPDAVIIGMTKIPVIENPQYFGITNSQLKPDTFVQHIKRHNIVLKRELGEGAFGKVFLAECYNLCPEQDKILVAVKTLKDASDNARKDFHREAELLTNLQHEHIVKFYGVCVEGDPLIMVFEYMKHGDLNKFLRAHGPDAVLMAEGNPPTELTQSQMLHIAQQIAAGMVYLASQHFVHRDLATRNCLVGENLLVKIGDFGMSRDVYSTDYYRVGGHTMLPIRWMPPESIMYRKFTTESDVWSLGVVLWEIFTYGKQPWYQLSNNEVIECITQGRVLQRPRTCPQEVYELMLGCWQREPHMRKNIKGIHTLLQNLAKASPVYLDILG

C=CC(=O)Nc1cccc(Nc2nc(Nc3ccc(OCCOC)c(F)c3)ncc2F)c1 [Compound 2]
inhibition at 3 µM (MYLK3): -15% | remaining activity at 3 µM (MYLK3; [1]): 113% | remaining activity at 3 µM (MYLK3; [2]): 116% | inhibition at 3 µM (PKCzeta): 2.52% | remaining activity at 3 µM (PKCzeta; [1]): 99.8% | remaining activity at 3 µM (PKCzeta; [2]): 95.2% | inhibition at 3 µM (SLK/STK2): 24.9% | remaining activity at 3 µM (SLK/STK2; [1]): 74.9% | remaining activity at 3 µM (SLK/STK2; [2]): 75.3% | inhibition at 3 µM (TNIK): 32.7% | remaining activity at 3 µM (TNIK; [1]): 66.8% | remaining activity at 3 µM (TNIK; [2]): 67.8% | inhibition at 3 µM (TRKB): 14.2% | remaining activity at 3 µM (TRKB; [1]): 86.5% | remaining activity at 3 µM (TRKB; [2]): 85% | inhibition at 3 µM (TTBK2): -0.86% | remaining activity at 3 µM (TTBK2; [1]): 102% | remaining activity at 3 µM (TTBK2; [2]): 99.7%
